US20250352529A1, “COMBINED USE OF M1 MUSCARINIC RECEPTOR AGONISTS AND M3 MUSCARINIC RECEPTOR ANTAGONISTS TO TREAT CANCER” (The United States Government As Represented By The …, priority 2024, published 2025)
Read-outs that look alike come from different tables or passages of the source.

Key:
H508 human CRC cells = assay: WST-1 cell proliferation assay, H508 cells; type: cell-based; settings: for change in cell proliferation: trospium 5-50 μM; for IC50: Homo sapiens, read-out: half-maximal inhibitory concentration (IC50), cell proliferation; for effect of antagonist preincubation on xanomeline dose-response curve (proliferation): trospium 50 μM, darifenacin 30 and 60 μM
Description: (§1) FIG. 6A) Treating H508 cells for 5 days with carbachol (carb), a non-selective muscarinic receptor agonist stimulates cell proliferation measured using the WST-1 Cell Proliferation Assay (Roche). Cont, control; Carb, carbachol. Solid black circles represent values for individual replicates. […] Cells were incubated with or without agents for 5 days. N=4. FIG. 6D). Maximal proliferation responses observed with increasing concentrations of McN-A-343 in H508 (square), HT-29 (triangle), and HCT116 (circle) human CRC cells. Cells were incubated with agents for 5 days. Dose-response curves created by nonlinear regression (GraphPad Prism).
(§2) Human colon cancer cell lines (H508, HCT116) were grown in complete culture medium in a 37° C. incubator with 5% CO2 and sub-cultured weekly. H508 or HCT116 cells were seeded in 96-well plates, allowed to adhere for 24 h and changed to serum-free culture medium. Cells were treated for 5 days with Xanomeline, a selective M1R agonist, and were pre-incubated for 30 min with Darifenacin, a selective M3R antagonist or Trospium, a non-selective MR antagonist. Cell proliferation and cytotoxicity were measured using the WST-1 and LDH colorimetric assays, respectively. Absorbance was measured at 440 nm and 490/680 nm, respectively, using a computer-interfaced plate reader.

HCT116 human CRC cells = assay: WST-1 cell proliferation assay, HCT116 cells; type: cell-based
Description: as §1, §2

HT-29 human CRC cells = assay: WST-1 cell proliferation assay, HT-29 cells; type: cell-based; settings: HT-29 cells (CHRM1:3-low), 5 days; read-out: half-maximal effective concentration (EC50) for inhibition of CRC cell proliferation
Description: as §1

H508 CRC cells = assay: LDH release cytotoxicity assay; type: cell-based, human; settings: increasing doses of xanomeline +/− 30 or 60 μM darifenacin
Description: FIG. 7A-B show combining a selective M3R inhibitor (darifenacin) with an M1R-selective activator potentiates inhibition of cell proliferation without cell injury. […] Triton X-100 was the positive control for LDH release. Symbols represent means+/−SEM of 3-9 replicates.
To exclude cell toxicity with these drug concentration, cellular release of lactate dehydrogenase (LDH) was measured.
as §2

[1] = H508 cells, 5 days, agent alone
[2] = NCI-H508, 120 h, H508 cells, agent alone, 5 days

IC50 (H508 human CRC cells; [2]) [µM] | SMILES | change in cell proliferation (H508 human CRC cells; [1]) | effect of antagonist preincubation on xanomeline dose-response curve (proliferation) (H508 human CRC cells; H508 cells) | further results
– | C[N+](C)(C)CC#CCOC(=O)Nc1cccc(Cl)c1.[Cl-] [McN-A-343] | robustly and dose-dependently attenuated cell proliferation | – | EC50 (H508 human CRC cells; H508 cells (CHRM1:3-low), 5 days, read-out: half-maximal effective concentration (EC50) for inhibition of CRC cell proliferation): 137 µM; EC50 (HCT116 human CRC cells; HCT116 cells (CHRM1:3-high), 5 days, read-out: half-maximal effective concentration (EC50) for inhibition of CRC cell proliferation): 7.89 µM; EC50 (HT-29 human CRC cells): 548 µM
32.8 | CCCCCCOc1nsnc1C1=CCCN(C)C1 [xanomeline, Xanomeline] | robustly and dose-dependently attenuated cell proliferation | – | IC50 (H508 human CRC cells; NCI-H508, H508 cells, xanomeline plus 30 μM darifenacin): 21.6 µM; IC50 (H508 human CRC cells; NCI-H508, H508 cells, xanomeline plus 60 μM darifenacin): 18.7 µM; inhibition of cell proliferation compared to H508 cells (HCT116 human CRC cells; HCT116 cells, increasing xanomeline concentrations): attenuated at lower xanomeline concentrations; cell LDH leakage (H508 CRC cells): No cell LDH leakage was detected
– | C[N+](C)(C)CCOC(N)=O [carbachol, Carbachol] | two-fold increase in cell proliferation | – | –
– | O=C(O[C@H]1C[C@H]2CC[C@@H](C1)[N+]21CCCC1)C(O)(c1ccccc1)c1ccccc1 [trospium, Trospium] | did not alter cell proliferation | did not shift | –
84 | NC(=O)C(c1ccccc1)(c1ccccc1)[C@@H]1CCN(CCc2ccc3c(c2)CCO3)C1 [darifenacin, Darifenacin] | – | shifted the xanomeline dose-response curve progressively leftward | –
